The NIST ThermoML archive (doi:10.1021/je600519p)

Experiment: xn = mol fraction of the nth substance listed
Details: 101 kPa, Liquid

CC(=O)c1ccccc1 [acetophenone] + CCOC(=O)OCC
Details	mass density [kg/m3]	speed of sound [m/s]	viscosity [mPa·s]
293.15 K, x2 = 0.0511	1025.19	1443	1.754
293.15 K, x2 = 0.1014	1023.01	1405	1.688
293.15 K, x2 = 0.1501	1020.69	1377	1.625
293.15 K, x2 = 0.1996	1018.39	1347	1.564
293.15 K, x2 = 0.2465	1016.19	1322	1.507
293.15 K, x2 = 0.3041	1013.29	1297	1.441
293.15 K, x2 = 0.3467	1011.15	1280	1.391
293.15 K, x2 = 0.4001	1008.46	1265	1.329
293.15 K, x2 = 0.4507	1005.89	1251	1.276
293.15 K, x2 = 0.4888	1003.9	1242	1.238
293.15 K, x2 = 0.5506	1000.67	1231	1.174
293.15 K, x2 = 0.6038	997.77	1222	1.122
293.15 K, x2 = 0.6498	995.25	1218	1.079
293.15 K, x2 = 0.7104	991.92	1215	1.025
293.15 K, x2 = 0.7513	989.53	1213	0.989
293.15 K, x2 = 0.8078	986.29	1210	0.941
293.15 K, x2 = 0.8522	983.66	1208	0.906
293.15 K, x2 = 0.8993	980.83	1207	0.869
293.15 K, x2 = 0.9488	977.82	1206	0.833
303.15 K, x2 = 0.0511	1016.4	1408	1.455
303.15 K, x2 = 0.1014	1014.09	1369	1.402
303.15 K, x2 = 0.1501	1011.77	1339	1.352
303.15 K, x2 = 0.1996	1009.35	1312	1.302
303.15 K, x2 = 0.2465	1007.04	1290	1.257
303.15 K, x2 = 0.3041	1004.02	1265	1.203
303.15 K, x2 = 0.3467	1001.78	1249	1.165
303.15 K, x2 = 0.4001	998.99	1232	1.118
303.15 K, x2 = 0.4507	996.27	1217	1.075
303.15 K, x2 = 0.4888	994.18	1208	1.042
303.15 K, x2 = 0.5506	990.73	1198	0.993
303.15 K, x2 = 0.6038	987.73	1194	0.952
303.15 K, x2 = 0.6498	985.06	1193	0.918
303.15 K, x2 = 0.7104	981.54	1192	0.875
303.15 K, x2 = 0.7513	979.05	1191	0.848
303.15 K, x2 = 0.8078	975.68	1190	0.811
303.15 K, x2 = 0.8522	972.91	1189	0.784
303.15 K, x2 = 0.8993	969.91	1188	0.755
303.15 K, x2 = 0.9488	966.78	1187	0.727
313.15 K, x2 = 0.0511	1007.58	1365	1.232
313.15 K, x2 = 0.1014	1005.19	1326	1.188
313.15 K, x2 = 0.1501	1002.73	1292	1.148
313.15 K, x2 = 0.1996	1000.2	1263	1.11
313.15 K, x2 = 0.2465	997.78	1238	1.073
313.15 K, x2 = 0.3041	994.63	1212	1.03
313.15 K, x2 = 0.3467	992.31	1196	0.998
313.15 K, x2 = 0.4001	989.35	1180	0.961
313.15 K, x2 = 0.4507	986.55	1168	0.925
313.15 K, x2 = 0.4888	984.35	1160	0.9
313.15 K, x2 = 0.5506	980.71	1153	0.86
313.15 K, x2 = 0.6038	977.48	1152	0.827
313.15 K, x2 = 0.6498	974.69	1151	0.799
313.15 K, x2 = 0.7104	971.04	1150	0.765
313.15 K, x2 = 0.7513	968.47	1149	0.742
313.15 K, x2 = 0.8078	964.89	1148	0.711
313.15 K, x2 = 0.8522	961.99	1147	0.688
313.15 K, x2 = 0.8993	958.99	1146	0.665
313.15 K, x2 = 0.9488	955.63	1145	0.641
323.15 K, x2 = 0.0511	998.79	1305	1.057
323.15 K, x2 = 0.1014	996.27	1265	1.023
323.15 K, x2 = 0.1501	993.68	1234	0.991
323.15 K, x2 = 0.1996	991.08	1208	0.959
323.15 K, x2 = 0.2465	988.56	1185	0.929
323.15 K, x2 = 0.3041	985.24	1164	0.893
323.15 K, x2 = 0.3467	982.8	1151	0.868
323.15 K, x2 = 0.4001	979.74	1137	0.837
323.15 K, x2 = 0.4507	976.77	1126	0.809
323.15 K, x2 = 0.4888	974.49	1121	0.787
323.15 K, x2 = 0.5506	970.76	1118	0.755
323.15 K, x2 = 0.6038	967.47	1117	0.727
323.15 K, x2 = 0.6498	964.54	1116	0.704
323.15 K, x2 = 0.7104	960.63	1115	0.676
323.15 K, x2 = 0.7513	957.86	1114	0.656
323.15 K, x2 = 0.8078	954.13	1113	0.631
323.15 K, x2 = 0.8522	951.07	1112	0.612
323.15 K, x2 = 0.8993	947.76	1111	0.592
323.15 K, x2 = 0.9488	944.32	1110	0.573
